From US20240294531A1, “COVALENT HETEROCYCLES AND USES THEREOF” (Kumquat Biosciences Inc., priority 2022, published 2024)

What was measured:
[1] = target: BTK wildtype protein (Homo sapiens (Human), UniProt Q06187); experiment: BTK wildtype HTRF displacement assay; format: binding; conditions: 1-hour incubation; read-out: BTK (wt) IC50
Method in brief: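 Full-length N-terminal GST-tagged BTK incubated 1 h at room temperature with compound (6 doses, four-fold dilutions from 5 μM top) plus kinase tracer 239 and anti-GST-Tb antibody. Tracer displacement read as TR-FRET 665/620 ratio, background-subtracted using no-protein control. IC50 from four-parameter fit constrained 0–100% inhibition.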

[2] = target: BTK C481S protein (Homo sapiens (Human), UniProt Q06187, C481S); experiment: BTK C481S HTRF displacement assay; format: binding; conditions: 1-hour incubation
Sequence of BTK C481S protein (Q06187 2-659 C481S): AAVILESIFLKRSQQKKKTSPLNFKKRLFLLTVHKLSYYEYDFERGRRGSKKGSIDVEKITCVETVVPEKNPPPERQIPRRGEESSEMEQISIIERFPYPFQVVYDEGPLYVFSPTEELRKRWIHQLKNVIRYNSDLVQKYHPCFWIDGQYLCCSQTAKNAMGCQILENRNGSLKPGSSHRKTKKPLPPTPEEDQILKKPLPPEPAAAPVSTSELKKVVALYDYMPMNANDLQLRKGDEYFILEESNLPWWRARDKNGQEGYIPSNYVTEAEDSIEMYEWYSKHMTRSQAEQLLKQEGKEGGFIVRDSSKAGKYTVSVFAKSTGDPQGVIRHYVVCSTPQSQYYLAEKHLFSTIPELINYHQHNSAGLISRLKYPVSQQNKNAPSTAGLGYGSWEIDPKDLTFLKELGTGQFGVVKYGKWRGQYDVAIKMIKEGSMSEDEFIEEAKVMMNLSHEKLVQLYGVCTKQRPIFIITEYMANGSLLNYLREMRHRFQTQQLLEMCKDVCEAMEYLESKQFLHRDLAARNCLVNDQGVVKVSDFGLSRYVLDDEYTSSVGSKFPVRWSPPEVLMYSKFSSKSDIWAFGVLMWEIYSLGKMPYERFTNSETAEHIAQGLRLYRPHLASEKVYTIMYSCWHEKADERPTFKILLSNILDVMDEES
Method in brief: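 N-terminal GST-tagged BTK C481S (2-659) incubated 1 hour at room temperature with compound (6 doses, four-fold from 5 μM), 50 nM kinase tracer 239 and anti-GST-Tb antibody. TR-FRET 665/620 ratio, background-subtracted; IC50 from constrained four-parameter fit. KI=IC50/(1+[Tracer]/Kd), tracer Kd 54 nM.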

Sequence of BTK wildtype protein (Q06187 2-659): as the sequence (Q06187 2-659 C481S) above, with S480C counted along it

Row | IC50 [1] [nM] | IC50 [2] [nM] | SMILES
1 | ≤ 1000 | ≤ 1000 | COc1ccc(F)cc1C(=O)NCc1ccc(-c2nn(CC3CCCC3N(C)C(=O)n3cncn3)c3ncnc(N)c23)cc1 (stereo not drawn) [Compound 211, N-(2-((4-amino-3-(4-((5-fluoro-2-methoxybenzamido)methyl)phenyl)-1H-pyrazolo[3,4-d]pyrimidin-1-yl)methyl)cyclopentyl)-N-methyl-1H-1,2,4-triazole-1-carboxamide]
2 | > 1000 | > 1000 | COc1ccc(F)cc1C(=O)NCc1ccc(-c2nn(C(CC3CCCC3)CN(C)C(=O)n3cncn3)c3ncnc(N)c23)cc1 (stereo not drawn) [Compound 206, N-(2-(4-amino-3-(4-((5-fluoro-2-methoxybenzamido)methyl)phenyl)-1H-pyrazolo[3,4-d]pyrimidin-1-yl)-3-cyclopentylpropyl)-N-methyl-1H-1,2,4-triazole-1-carboxamide]
3 | > 1000 | > 1000 | COc1ccc(F)cc1C(=O)NCc1ccc(-c2nn(C(CN(C)C(=O)n3cncn3)c3ccccc3)c3ncnc(N)c23)cc1 (stereo not drawn) [Compound 243, N-(2-(4-amino-3-(4-((5-fluoro-2-methoxybenzamido)methyl)phenyl)-1H-pyrazolo[3,4-d]pyrimidin-1-yl)-2-phenylethyl)-N-methl-1H-1,2,4-triazole-1-carboxamide]
4 | > 1000 | > 1000 | COc1ccc(F)cc1C(=O)NCc1ccc(-c2nn(CC3C(C)CCCN3C(=O)n3cncn3)c3ncnc(N)c23)cc1 (stereo not drawn) [Compound 271, N-(4-(4-amino-1-((3-methyl-1-(1H-1,2,4-triazole-1-carbonyl)piperidin-2-yl)methyl)-1H-pyrazolo[3,4-d]pyrimidin-3-yl)benzyl)-5-fluoro-2-methoxybenzamide]
5 | ≤ 1000 | ≤ 1000 | COc1ccc(F)cc1C(=O)NCc1ccc(-c2nn(C3CCCN(C(=O)n4cncn4)C3)c(N)c2C(N)=O)cc1 (stereo not drawn) [Compound 124, 1-(1-(1H-1,2,4-triazole-1-carbonyl)piperidin-3-yl)-5-amino-3-(4-((5-fluoro-2-methoxybenzamido)methyl)phenyl)-1H-pyrazole-4-carboxamide]
6 | > 1000 | > 1000 | NC(=O)c1nn2c(c1-c1ccc(Oc3ccccc3)cc1)NCCC2C1CCCCN1C(=O)n1cncn1 (stereo not drawn) [Compound 203, 7-(1-(1H-1,2,4-triazole-1-carbonyl)piperidin-2-yl)-3-(4-phenoxy-phenyl)-4,5,6,7-tetrahydro-pyrazolo[1,5-a]pyrimidine-2-carboxamide]
7 | > 1000 | > 1000 | COc1ccc(F)cc1C(=O)NCc1ccc(-c2nn(CCN(C(=O)n3cncn3)C3CC3)c3ncnc(N)c23)cc1 [Compound 316, N-(2-(4-amino-3-(4-((5-fluoro-2-methoxybenzamido)methyl)phenyl)-1H-pyrazolo[3,4-d]pyrimidin-1-yl)ethyl)-N-cyclopropyl-1H-1,2,4-triazole-1-carboxamide]
8 | ≤ 1000 | ≤ 1000 | COc1ccc(F)cc1C(=O)NCc1ccc(-c2nn(C[C@@H]3CCCC[C@H]3CN(C)C(=O)n3cncn3)c3ncnc(N)c23)cc1 [Compound 130, N-(((1R,2R)-2-((4-amino-3-(4-((5-fluoro-2-methoxybenzamido)methyl)phenyl)-1H-pyrazolo [3,4-d]pyrimidin-1-yl)methyl)cyclohexyl)methyl)-N-methyl-1H-1,2,4-triazole-1-carboxamide]
9 | ≤ 1000 | > 1000 | COc1ccc(F)cc1C(=O)NCc1ccc(-c2nn(C3(CN(C)C(=O)n4cnnn4)CC3)c3ncnc(N)c23)cc1 [Compound 119, N-((1-(4-amino-3-(4-((5-fluoro-2-methoxybenzamido)methyl)phenyl)-1H-pyrazolo[3,4-d]pyrimidin-1-yl)cyclopropyl)methyl)-N-methyl-1H-tetrazole-1-carboxamide]
10 | ≤ 1000 | ≤ 1000 | COc1ccc(F)cc1C(=O)NCc1ccc(-c2nn(C[C@H]3CCCC[C@@H]3CN(C)C(=O)n3cncn3)c3ncnc(N)c23)cc1 [Compound 193, N-(((1S,2S)-2-((4-amino-3-(4-((5-fluoro-2-methoxybenzamido)methyl)phenyl)-1H-pyrazolo [3,4-d]pyrimidin-1-yl)methyl)cyclohexyl)methyl)-N-methyl-1H-1,2,4-triazole-1-carboxamide]
11 | ≤ 1000 | ≤ 1000 | COc1ccc(F)cc1C(=O)NCc1ccc(-c2nn(C(C)CN(C)C(=O)n3cncn3)c(N)c2C(N)=O)cc1 (stereo not drawn) [Compound 218, N-(2-(5-amino-4-carbamoyl-3-(4-((5-fluoro-2-methoxybenzamido)methyl)phenyl)-1H-pyrazol-1-yl)propyl)-N-methyl-1H-1,2,4-triazole-1-carboxamide]
12 | ≤ 1000 | ≤ 1000 | COc1ccc(C)cc1C(=O)NCc1ccc(-c2nn(C3CCCC(N(C)C(=O)n4cnnn4)C3)c3ncnc(N)c23)cc1 (stereo not drawn) [Compound 219, N-(3-(4-amino-3-(4-((2-methoxy-5-methylbenzamido)methyl)phenyl)-1H-pyrazolo[3,4-d]pyrimidin-1-yl)cyclohexyl)-N-methyl-1H-tetrazole-1-carboxamide]
13 | ≤ 1000 | > 1000 | COc1ccc(F)cc1C(=O)NCc1ccc(-c2nn(C3(CN(C)C(=O)n4cncn4)CC3)c3ncnc(N)c23)cc1 [Compound 188, N-((1-(4-amino-3-(4-((5-fluoro-2-methoxybenzamido)methyl)phenyl)-1H-pyrazolo[3,4-d]pyrimidin-1-yl)cyclopropyl)methyl)-N-methyl-1H-1,2,4-triazole-1-carboxamide]
14 | ≤ 1000 | ≤ 1000 | CN(C(=O)n1cncn1)C1CC(C2CCNc3c(C(N)=O)c(-c4ccc(Oc5ccccc5)cc4)nn32)C1 (stereo not drawn) [Compound 115, 7-(3-(N-methyl-1H-1,2,4-triazole-1-carboxamido)cyclobutyl)-2-(4-phenoxyphenyl)-4,5,6,7-tetrahydropyrazolo[1,5-a]pyrimidine-3-carboxamide]
15 | > 1000 | > 1000 | CN(CC1CNc2c(C(N)=O)c(-c3ccc(Oc4ccccc4)cc3)nn2C1)C(=O)n1cncn1 (stereo not drawn) [Compound 149, 6-((N-methyl-1H-1,2,4-triazole-1-carboxamido)methyl)-2-(4-phenoxyphenyl)-4,5,6,7-tetrahydropyrazolo[1,5-a] pyrimidine-3-carboxamide]
16 | > 1000 | > 1000 | CC1CN(Cc2ccc(C(F)(F)F)cc2N2CCCC2)CCN1C(=O)n1cncn1 (stereo not drawn) [Compound 106, (2-methyl-4-(2-(pyrrolidin-1-yl)-4-(trifluoromethyl)benzyl)piperazin-1-yl)(1H-1,2,4-triazol-1-yl)methanone]
17 | ≤ 1000 | ≤ 1000 | COc1ccc(F)cc1C(=O)NCc1ccc(-c2nn(C[C@@H]3CCN3C(=O)n3cncn3)c3ncnc(N)c23)cc1 [Compound 103, (S)-N-(4-(1-((1-(1H-1,2,4-triazole-1-carbonyl)azetidin-2-yl)methyl)-4-amino-1H-pyrazolo[3,4-d]pyrimidin-3-yl)benzyl)-5-fluoro-2-methoxybenzamide]
18 | ≤ 1000 | ≤ 1000 | COc1ccc(F)cc1C(=O)NCc1ccc(-c2nn(-c3ccc(CN(C)C(=O)n4cncn4)cc3)c3ncnc(N)c23)cc1 [Compound 138, N-(4-(4-amino-3-(4-((5-fluoro-2-methoxybenzamido)methyl)phenyl)-1H-pyrazolo[3,4-d]pyrimidin-1-yl)benzyl)-N-methyl-1H-1,2,4-triazole-1-carboxamide]
19 | > 1000 | > 1000 | NC(=O)c1cn(C[C@@H]2CCCCN2C(=O)n2cncn2)nc1-c1ccc(Oc2ccccc2)cc1 [Compound 175, (S)-1-((1-(1H-1,2,4-triazole-1-carbonyl)piperidin-2-yl)methyl)-3-(4-phenoxyphenyl)-1H-pyrazole-4-carboxamide]
20 | ≤ 1000 | ≤ 1000 | COc1ccc(F)cc1C(=O)NCc1ccc(-c2nn(C[C@@H]3CC[C@H]3N(C)C(=O)n3cncn3)c(N)c2C(N)=O)cc1 [Compound 121, N-((1R,2S)-2-((5-amino-4-carbamoyl-3-(4-((5-fluoro-2-methoxybenzamido)methyl)phenyl)-1H-pyrazol-1-yl)methyl)cyclobutyl)-N-methyl-1H-1,2,4-triazole-1-carboxamide]
21 | ≤ 1000 | ≤ 1000 | CN(C(=O)n1cncn1)[C@@H]1CCC[C@H](n2nc(-c3ccc(Oc4ccccc4)cc3)c(C(N)=O)c2N)C1 [Compound 297, N-((1R,3S)-3-(5-amino-4-carbamoyl-3-(4-phenoxyphenyl)-1H-pyrazol-1-yl)cyclohexyl)-N-methyl-1H-1,2,4-triazole-1-carboxamide]
22 | ≤ 1000 | ≤ 1000 | COc1ccc(F)cc1C(=O)NCc1ccc(-c2nn(C3CCC3N(C)C(=O)n3cncn3)c3ncnc(N)c23)cc1 (stereo not drawn) [Compound 181, N-(2-(4-amino-3-(4-((5-fluoro-2-methoxybenzamido)methyl)phenyl)-1H-pyrazolo[3,4-d]pyrimidin-1-yl)cyclobutyl)-N-methyl-1H-1,2,4-triazole-1-carboxamide]
23 | ≤ 1000 | ≤ 1000 | COc1ccc(F)cc1C(=O)NCc1ccc(-c2nn(CC3CCCCN(C(=O)n4cncn4)C3)c(N)c2C(N)=O)cc1 (stereo not drawn) [Compound 296, 1-((1-(1H-1,2,4-triazole-1-carbonyl)azepan-3-yl)methyl)-5-amino-3-(4-((5-fluoro-2-methoxybenzamido)methyl)phenyl)-1H-pyrazole-4-carboxamide]
24 | ≤ 1000 | > 1000 | COc1ccc(C)cc1C(=O)NCc1ccc(-c2nn(CC3CCCCN3C(=O)n3cnnn3)c3ncnc(N)c23)cc1 (stereo not drawn) [Compound 158, N-(4-(1-((1-(1H-tetrazole-1-carbonyl)piperidin-2-yl)methyl)-4-amino-1H-pyrazolo[3,4-d]pyrimidin-3-yl)benzyl)-2-methoxy-5-methylbenzamide]
